Source: patent publication US5811271A, “Process for producing L-ketohexose” (Kabushiki Kaisha Hayashibara Seibutsu Kagaku Kenkyujo, priority 1994, dated 1998)

molecular target: T1, D-ketohexose 3-epimerase (Pseudomonas cichorii, UniProt O50580); assay: Relative enzyme activity of purified D-ketohexose 3-epimerase on L-ketohexose substrates; assay type: biochemical, Pseudomonas cichorii ST-24; details: substrate in 0.1 M solution (pH 7.5), 11 units/g substrate of enzyme, 30° C., 24 hours; D-tagatose as control regarded as 100
T1 construct: The cells which had been recovered from 80 liters of the resultant culture were crushed by grinding; made in house; host or cells: Pseudomonas cichorii ST-24 (FERM BP-2736), the natural producer; not recombinant
Method: D-Ketohexose 3-epimerase was studied for relative enzyme activity on various L-ketohexoses. A purified D-ketohexose 3-epimerase obtained by the method in Example 1 was allowed to act on four different types of L-ketohexoses as substrates, i.e. L-psicose, L-fructose, L-sorbose and L-tagatose, to determine the enzyme activity on them. The reaction conditions were as follows: To either substrate in 0.1 M solution (pH 7.5) was added 11 units/g substrate of the enzyme and reacted at 30° C. for 24 hours. As a control, D-tagatose was used as substrate and the relative enzyme activity was regarded as 100.
The enzyme specimen thus obtained was assayed as follows: The reaction solution used in this assay consisted of 100 microliters of 50 mM Tris-HCl buffer (pH 7.5), 50 microliters 40 mM D-tagatose and 50 microliters of an enzyme solution. The enzymatic reaction was carried out at 30° C. for 60 minutes, and the formed D-sorbose was quantified on HPLC. One unit activity of the enzyme was defined as the amount of enzyme that epimerizes one micromol of D-tagatose into D-sorbose per minute.

Question: With O=C(CO)[C@@H](O)[C@@H](O)[C@H](O)CO [D-Tagatose, reference compound] as the compound, how does the Relative enzyme activity read?
Answer: Its Relative enzyme activity is 100.

Question: Which Relative enzyme activity does the source give for O=C(CO)[C@H](O)[C@@H](O)[C@@H](O)CO [L-Fructose] here?
Answer: The Relative enzyme activity was “about 5”.

Question: With O=C(CO)[C@@H](O)[C@@H](O)[C@@H](O)CO [L-Psicose] as the compound, how does the Relative enzyme activity read?
Answer: Its Relative enzyme activity is “about 20”.

Question: With O=C(CO)[C@@H](O)[C@H](O)[C@@H](O)CO [L-Sorbose] as the compound, how does the Relative enzyme activity read?
Answer: The Relative enzyme activity was “about 2”.

Question: Which Relative enzyme activity does the source give for O=C(CO)[C@H](O)[C@H](O)[C@@H](O)CO [L-Tagatose] here?
Answer: The Relative enzyme activity was “about 0.5”.
